Results from patent US10555957B2, “Methods and compositions for enriching DHA levels in the brain” (The Board of Trustees of the University of Illinois, a body …, priority 2017, dated 2020).
“And” between values parts separate entries of the source, which are not always exact repeats. Identical values can stand only once.

Columns and labels:
[1] = ref [32]; cited from earlier work
[2] = Feeding study, daily gavage for 30 days: fatty acid and DHA lipid species of plasma, liver, heart, adipose tissue and brain regions
[3] = Intestinal absorption of micellar DHA into lymph (HDL, chylomicrons; PC, TAG) in rats with lymph duct cannulation; format: in vivo, Sprague-Dawley rats
Protocol: Two types of micelle, one containing the DHA as free fatty acid, and the other containing the DHA as LPC, were prepared by sonication. All components except taurocholate were added as chloroform solutions to a glass tube and the solvent was evaporated under nitrogen. Then 10 ml of sodium taurocholate solution (12 mM, in PBS, pH 7.4) was added to the tube and the lipids dispersed by vortexing for 1 min. The mixture was then sonicated in a Sonics Vibro Cell sonicator at 40% setting for four 30 sec pulses at 1 min intervals, while the tube was immersed in ice. The resulting micelle were optically clear, and were used immediately for infusion into rats.
Thoracic lymph duct cannulation was carried out as described with slight modifications. The rats were fasted overnight before the procedure. Under analgesics and isoflurane anesthesia, the abdomen was opened, the dorsal parietal peritoneum was incised, and the aorta was dissected free from the surrounding muscle and thoracic duct. The duct was cannulated (3-5 mm) with a heparin (500 units/ml) and saline-rinsed, pre-cut catheter (16 gauge, BD Angiocath). Following insertion, the catheter was connected to ‘U” shaped secured Silastic Laboratory tubing to prevent displacement or dislodgement. Micelle (10 ml) were infused at a rate of 3 ml/h into the duodenum (Harvard pump) through a second catheter positioned into the duodenum, followed by the infusion of 10 ml PBS, at 3 ml/h. The abdomen was closed and the lymph was collected for 6 h, in 30 min fractions into tubes containing 1.0 ml of PBS, while the animal was under anesthesia. The body temperature of the animal was maintained at 37° C. with the help of a heating pad.
The volume of each lymph fraction was made up to 2.0 ml with PBS, containing 1 mM EDTA (final). The density of lymph fraction was raised to 1.063 g/ml by the addition of KBr and centrifuged at 100,000×g for 4 h at 4° C. in the TLA 100.3 rotor of the Beckman TL-100 ultracentrifuge. One ml of the bottom layer was aspirated to a new tube (HDL) and the remaining 1.0 ml was taken as the chylomicrons (CM).
Extraction and Analysis of Lipids. The total lipids of HDL and CM were extracted by the Bligh and Dyer method after spiking the samples with 25 μg each of 15:0-15:0-15:0 TAG and 17:0-17:0 PC. The lipid extract was applied to an aminopropyl silica cartridge (100 mg) in 1 ml of chloroform under gravity, and the cartridge was washed with chloroform (2×1.0 ml) to elute the TAG and cholesteryl esters. […] The PC was then eluted with 2.0 ml of chloroform: methanol (3:2, v/v)).
The temperature program was as follows: 165° C. for 1 min, raised to 210° C. at the rate of 6.5° C./min, followed by raising to 240° C. at the rate of 3.5° C./min, and maintaining at 240° C. for 10 min. The total analysis time was 26.5 min. The injection temperature was 250° C., ion source temperature 230° C. and the interface temperature was 250° C. […] The identification of individual FAME was done by comparison of retention times with the standard mixture (PUFA2, Sigma) as well as by the characteristic fragment ions (m/z 74 for saturated, m/z 55 for monounsaturated, m/z 67 for diunsaturated, and m/z 79 for polyunsaturated).

[4] = tested on: normal adult mice; assay: Morris water maze test; format: in vivo, C57BL/6 mice; conditions: for latency time to the previous platform area / time in the target quadrant: n=5; for finding the previous platform area, faster than the control and free DHA groups / time spent in the target quadrant versus control and free DHA groups: study 1, probe trial
[5] = tested on: BDNF; assay: BDNF concentration in the brain regions by ELISA; format: in vivo, C57BL/6 mice; conditions: 1 mg DHA/day, 30 days, n=6
Text: Therefore, we determined BDNF concentration in the brain regions by ELISA to complement our MWM data.

[6] = Feeding free EPA or LPC-EPA for 15 days: omega 3 fatty acids and arachidonic acid in tissues; format: in vivo, Mice; conditions: 1 mg EPA/day for 15 days
[7] = as above; format: in vivo, Mice; conditions: oral; for all three n-3 fatty acids in the liver / decrease in liver arachidonic acid level / decrease of brain content of arachidonic acid: 15 days; for increase of brain DHA content: corn oil gavage
Protocol: Mice were fed oral preparations of free EPA or LPC-EPA at about 1 mg/kg per day for 15 days. The compounds were dispersed in corn oil (80 μl) and fed daily by gavge.

[8] = Isomerization / isomer stability of LPC-DHA; format: physicochemical
Protocol: LPC-DHA was prepared by the hydrolysis of 16:0-22:6 PC by immobilized Mucor lipase (Lipozyme) by a modification of the published procedure. Briefly, 100 mg of Lipozyme was added to 50 mg of 16:0-22:6 PC dissolved in 1 ml of 95:5 (v/v) ethanol: water. The reaction mixture was incubated at 37° C. for 72 h under nitrogen with shaking. The reaction mixture was dried under nitrogen and extracted with 4 ml of ethanol: water: hexane (2:1:1, by vol) mixture to remove the free fatty acid. The lower layer was concentrated under nitrogen and extracted by Bligh and Dyer procedure. The final sample contained 95% LPC, the rest being unhydrolyzed PC, as determined by lipid phosphorus estimation after TLC separation. Although this enzyme produces sn-2 22:6 LPC, this isomer is unstable, and is non-enzymatically isomerized to sn-1-22:6 LPC [24,25].
sn-2 DHA LPC was prepared by the hydrolysis of 16:0-22:6 PC with immobilized Mucor lipase (Lipozyme) by a modification of the published procedure^44. […] The preparation contained >95% of lipid phosphorus in LPC DHA and the rest in unhydrolyzed PC, as determined by TLC, and was used for feeding studies without further purification. […] More than 95% of the 2-acyl LPC DHA was converted to 1-acyl isomer under these conditions, as determined by LC/MS.

[9] = cited from earlier work
[10] = tested on: BDNF; assay: BDNF levels in the brain after feeding free EPA or LPC-EPA; format: in vivo, Mice; conditions: 1 mg EPA/day for 15 days
Protocol: The compounds were dispersed in corn oil (80 μl) and fed daily by gavge. Results are shown in e.g. […]. […] See e.g. FIGS. 23A-23C.

[11] = about 1 mg/kg per day for 15 days

CCCCCCCCCCCCCCCC(=O)OCC(O)COP(=O)([O-])OCC[N+](C)(C)C (stereo not drawn) [16:0 LPC]
recovery of 16:0 in lymph PC after infusion of 16:0 LPC [1]: 25-30%

CC/C=C\C/C=C\C/C=C\C/C=C\C/C=C\C/C=C\CCC(=O)O [free DHA, (4Z,7Z,10Z,13Z,16Z,19Z)-docosa-4,7,10,13,16,19-hexaenoic acid, reference compound]
DHA concentration and 22:6/20:4 ratio in adipose tissue ([2]; 1 mg DHA/day, 30 days): increase
20:4-22:6 PC in the hippocampus ([2]; LC/MS/MS): increased
DHA-PC species in plasma ([2]; LC/MS/MS): not
major species of DHA-PE in the hippocampus ([2]; LC/MS/MS): not
plasma TAG species containing DHA ([2]; LC/MS/MS): increased more
LPC DHA concentration of plasma ([2]; LC/MS/MS, 1 mg DHA/day, 30 days): not
22:6/20:4 ratio in brain regions ([2]; all regions of brain): no significant increase
increase of brain DHA levels in normal adult mice ([2]; equal amount of DHA, 30 days): did not appreciably increase
percentage of 22:6/22:6/18:1 TAG species ([3]; HDL and CM, free DHA compared to LPC-DHA): significantly higher
TAG species containing DHA at all 3 positions ([3]; free DHA compared to LPC-DHA absorption): significantly higher
significant amount of free DHA in the lymph after infusion [3]: not observed
latency time to the previous platform area ([4]; second study, probe trial): 47.1 s
time in the target quadrant ([4]; second study, probe trial): 12 s
BDNF content in regions of the brain [5]: no change

CC/C=C\C/C=C\C/C=C\C/C=C\C/C=C\CCCC(=O)O [free EPA, eicosapentaenoic acid]
enriching the total omega 3 fatty acids in the heart [6]: equally efficient
omega 3 fatty acid content of adipose tissue [6]: enriched more
omega 3 fatty acids in erythrocytes [6]: increased
all three n-3 fatty acids in the liver [7]: increased
decrease in liver arachidonic acid level [7]: ~60%
decrease of brain content of arachidonic acid [7]: ~12%
increase of brain EPA (in words) [7, 11]: to a small extent
increase of total amount of brain Omega 3 fatty acids (EPA+DPA+DHA) [7, 11]: no change
increase of brain DHA content [7, 11]: no effect

CC/C=C\C/C=C\C/C=C\C/C=C\C/C=C\C/C=C\CCC(=O)OC[C@@H](O)COP(=O)([O-])OCC[N+](C)(C)C [sn-1 DHA LPC]
18:1-22:6 PC in plasma, between the two LPC isomers ([2]; mouse, in vivo): greater increase
22:6/20:4 ratio in liver ([2]; mouse, in vivo): significantly increased
DHA concentration in liver ([2]; mouse, in vivo): did not reach statistical significance
enrichment of all the brain regions with DHA ([2]; mouse, in vivo): significantly enriched
increase in plasma LPC DHA, sn-1 DHA LPC compared to sn-2 DHA LPC ([2]; mouse, in vivo): 28%
increase of DHA content (nmol/mg) in striatum and amygdala ([2]; mouse, in vivo): did not reach statistical significance
acquisition phase, learning the location of the platform by Day 5 ([4]; second study): faster
latency time to the previous platform area ([4]; second study, probe trial): 12.7 s
time in the target quadrant ([4]; second study, probe trial): 29.9 s
finding the previous platform area, faster than the control and free DHA groups [4]: 7 times
time spent in the target quadrant versus control and free DHA groups [4]: twice as long
BDNF content in regions of the brain [5]: significantly increased

CC/C=C\C/C=C\C/C=C\C/C=C\C/C=C\C/C=C\CCC(=O)O[C@H](CO)COP(=O)([O-])OCC[N+](C)(C)C [sn-2 DHA LPC]
22:6/20:4 ratio in liver ([2]; 1 mg DHA/day, 30 days): increase
DHA concentration in liver ([2]; 1 mg DHA/day, 30 days): significantly increased
concentration of 20:4 in liver ([2]; 1 mg DHA/day, 30 days): parallel decrease
enrichment of all the brain regions with DHA ([2]; cortex, cerebellum, hippocampus, striatum, amygdala, % of total fatty acids): significantly enriched
isomerization to the sn-1 isomer, compared with sn-2 16:0 LPC ([8]; physiological pH and temperature, unpublished results): much slower
LPC remaining as sn-2 isomer ([8]; stored in chloroform: methanol (9:1) at −20° C., at least 4 weeks): Over 90%
finding the previous platform area, faster than the control and free DHA groups [4]: 7 times
time spent in the target quadrant versus control and free DHA groups [4]: twice as long
BDNF content in regions of the brain [5]: significantly increased

docosahexaenoic acid-lysophosphatidylcholine [LPC-DHA]
increase of DHA content in most regions of the brain (nmol of DHA per mg wet weight) ([2]; 1 mg DHA/day, 30 days): 2-3 fold
percentage of DHA in plasma ([2]; % of total fatty acids, 1 mg DHA/day, 30 days): greater
brain uptake of injected compound compared with free DHA ([9]; kinetic studies [7]): higher
efficiency of passing through the BBB compared with free fatty acid ([9]; previous studies in animals [5,6]): about 10 times
percentage of 16:0/22:6 PC ([3]; HDL and CM, LPC-DHA compared to free DHA absorption): significantly lower
significant amount of free DHA in the lymph after infusion [3]: not observed
increase in amount of DHA recovered in lymph HDL, compared to free DHA absorption ([3]; lymph HDL): > 2 fold
hydrolysis in the intestinal lumen (intestinal contents after the 6 h lymph collection) ([3]; some experiments): no hydrolysis of LPC in the lumen
percent of whole lymph DHA appearing in PC, LPC compared to free fatty acid ([3]; whole lymph): 5 times
percent of whole lymph DHA appearing in PC ([3]; whole lymph, mean±SEM): 18.72±2.88% and 18%
decrease in the latency to previous platform area, compared to the control or free DHA treated animals ([4]; probe trial): 7 fold
increase in the time spent in the target quadrant, compared to the control or free DHA treated animals ([4]; probe trial): 2 fold

eicosapenteanoic acid-lysophosphatidylcholine [LPC-EPA]
BDNF levels in the brain [10]: increased
arachidonic acid in the brain, LPC-EPA versus free EPA [6]: decreased it more
concentration of arachidonic acid in all tissues [6]: decreased
enriching the total omega 3 fatty acids in the heart [6]: equally efficient
all three n-3 fatty acids in the liver [7]: increased
decrease in liver arachidonic acid level [7]: ~60%
decrease of brain content of arachidonic acid [7]: ~40%
increase of total amount of brain Omega 3 fatty acids (EPA+DPA+DHA) [7, 11]: about 90%
increase of brain DHA content [7, 11]: 60%
